Tested on: 379773-124-R-J2-PDC spheroid viability
Assay: Anticancer human tumor 379773-124-R-J2-PDC patient-derived endometrial carcinoma cell line growth inhibition [POLQ]
Settings: spheroids with HUVEC and MSC; for IC50: curve of first compound; for viability, T/C: stronger effect = lower value
Summary of the method: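 Three-cell-type spheroids modelling solid tumor plus stroma served as the readout system; POL inhibitors were tested individually and in combination, concentration ranges set by clinical Cmax where known.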

[1] = second compound 0.0316 µM, first compound 0.0316 µM
[2] = second compound 0.0316 µM, first compound 0.1 µM
[3] = second compound 0.0316 µM, first compound 0.316 µM
[4] = second compound 0.0316 µM, first compound 1 µM
[5] = second compound 0.1 µM, first compound 0.0316 µM
[6] = second compound 0.1 µM, first compound 0.1 µM
[7] = second compound 0.1 µM, first compound 0.316 µM
[8] = second compound 0.1 µM, first compound 1 µM
[9] = second compound 0.316 µM, first compound 0.0316 µM
[10] = second compound 0.316 µM, first compound 0.1 µM
[11] = second compound 0.316 µM, first compound 0.316 µM
[12] = second compound 0.316 µM, first compound 1 µM
[13] = second compound 1 µM, first compound 0.0316 µM
[14] = second compound 1 µM, first compound 0.1 µM
[15] = second compound 1 µM, first compound 0.316 µM
[16] = second compound 1 µM, first compound 1 µM
[17] = second compound 3.16 µM, first compound 0.0316 µM
[18] = second compound 3.16 µM, first compound 0.1 µM
[19] = second compound 3.16 µM, first compound 0.316 µM
[20] = second compound 3.16 µM, first compound 1 µM
[21] = second compound 10 µM, first compound 0.0316 µM
[22] = second compound 10 µM, first compound 0.1 µM
[23] = second compound 10 µM, first compound 0.316 µM
[24] = second compound 10 µM, first compound 1 µM
[25] = second compound 0.0316 µM, first compound 3.16 µM
[26] = second compound 0.0316 µM, first compound 10 µM
[27] = second compound 0.1 µM, first compound 3.16 µM
[28] = second compound 0.1 µM, first compound 10 µM
[29] = second compound 0.316 µM, first compound 3.16 µM
[30] = second compound 0.316 µM, first compound 10 µM
[31] = second compound 1 µM, first compound 3.16 µM
[32] = second compound 1 µM, first compound 10 µM
[33] = second compound 3.16 µM, first compound 3.16 µM
[34] = second compound 3.16 µM, first compound 10 µM
[35] = second compound 10 µM, first compound 3.16 µM
[36] = second compound 10 µM, first compound 10 µM
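Note: spheroids exposed to drugs for seven days before readout.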
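Throughout, for viability, T/C: percent viability relative to DMSO vehicle control taken as 100%.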

## CCc1c2c(nc3ccc(O)cc13)-c1cc3c(c(=O)n1C2)COC(=O)[C@]3(O)CC + COC1C(OC(N)=O)C(O)C(Oc2ccc3c(O)c(NC(=O)c4ccc(O)c(CC=C(C)C)c4)c(=O)oc3c2C)OC1(C)C
Second compound 0.0316 µM
  IC50: < 0.00316 µM
Second compound 0.1 µM
  IC50: < 0.00316 µM
Second compound 0.316 µM
  IC50: < 0.00316 µM
Second compound 1 µM
  IC50: < 0.00316 µM
Second compound 3.16 µM
  IC50: < 0.00316 µM
Second compound 10 µM
  IC50: < 0.00316 µM
Second compound 0.0316 µM, first compound 0.00316 µM
  viability, T/C: 42.4%
Second compound 0.0316 µM, first compound 0.01 µM
  viability, T/C: 8.01%
[1]
  viability, T/C: 6.39%
[2]
  viability, T/C: 2.16%
[3]
  viability, T/C: 1.05%
[4]
  viability, T/C: 0.62%
Second compound 0.1 µM, first compound 0.00316 µM
  viability, T/C: 49.5%
Second compound 0.1 µM, first compound 0.01 µM
  viability, T/C: 11.7%
[5]
  viability, T/C: 5.4%
[6]
  viability, T/C: 1.94%
[7]
  viability, T/C: 0.57%
[8]
  viability, T/C: 1.04%
Second compound 0.316 µM, first compound 0.00316 µM
  viability, T/C: 45.1%
Second compound 0.316 µM, first compound 0.01 µM
  viability, T/C: 8.27%
[9]
  viability, T/C: 5.04%
[10]
  viability, T/C: 2.09%
[11]
  viability, T/C: 2.43%
[12]
  viability, T/C: 0.41%
Second compound 1 µM, first compound 0.00316 µM
  viability, T/C: 40%
Second compound 1 µM, first compound 0.01 µM
  viability, T/C: 9.16%
[13]
  viability, T/C: 5.09%
[14]
  viability, T/C: 1.92%
[15]
  viability, T/C: 0.94%
[16]
  viability, T/C: 0.31%
Second compound 3.16 µM, first compound 0.00316 µM
  viability, T/C: 41.8%
Second compound 3.16 µM, first compound 0.01 µM
  viability, T/C: 9.15%
[17]
  viability, T/C: 5.39%
[18]
  viability, T/C: 2.03%
[19]
  viability, T/C: 0.93%
[20]
  viability, T/C: 0.3%
Second compound 10 µM, first compound 0.00316 µM
  viability, T/C: 41.5%
Second compound 10 µM, first compound 0.01 µM
  viability, T/C: 7.13%
[21]
  viability, T/C: 6.51%
[22]
  viability, T/C: 1.69%
[23]
  viability, T/C: 1.78%
[24]
  viability, T/C: 0.49%

## CNCc1ccc(-c2[nH]c3cc(F)cc4c3c2CCNC4=O)cc1 + COC1C(OC(N)=O)C(O)C(Oc2ccc3c(O)c(NC(=O)c4ccc(O)c(CC=C(C)C)c4)c(=O)oc3c2C)OC1(C)C
Second compound 0.0316 µM
  IC50: > 10 µM
Second compound 0.1 µM
  IC50: > 10 µM
Second compound 0.316 µM
  IC50: > 10 µM
Second compound 1 µM
  IC50: > 10 µM
Second compound 3.16 µM
  IC50: > 10 µM
Second compound 10 µM
  IC50: > 10 µM
[1]
  viability, T/C: 104%
[2]
  viability, T/C: 86.1%
[3]
  viability, T/C: 84.5%
[4]
  viability, T/C: 74.5%
[25]
  viability, T/C: 82.5%
[26]
  viability, T/C: 78.1%
[5]
  viability, T/C: 102%
[6]
  viability, T/C: 86.7%
[7]
  viability, T/C: 90.5%
[8]
  viability, T/C: 88.2%
[27]
  viability, T/C: 87.8%
[28]
  viability, T/C: 82.9%
[9]
  viability, T/C: 95.5%
[10]
  viability, T/C: 96.8%
[11]
  viability, T/C: 87.8%
[12]
  viability, T/C: 93.2%
[29]
  viability, T/C: 77.2%
[30]
  viability, T/C: 78.4%
[13]
  viability, T/C: 91.8%
[14]
  viability, T/C: 98.2%
[15]
  viability, T/C: 78.1%
[16]
  viability, T/C: 86.1%
[31]
  viability, T/C: 82.6%
[32]
  viability, T/C: 67.3%
[17]
  viability, T/C: 79.8%
[18]
  viability, T/C: 79.9%
[19]
  viability, T/C: 76.2%
[20]
  viability, T/C: 85.1%
[33]
  viability, T/C: 80.1%
[34]
  viability, T/C: 78.3%
[21]
  viability, T/C: 80.3%
[22]
  viability, T/C: 81.7%
[23]
  viability, T/C: 96.5%
[24]
  viability, T/C: 75.5%
[35]
  viability, T/C: 76.7%
[36]
  viability, T/C: 65.7%

## Nc1ccn(C2OC(CO)C(O)C2(F)F)c(=O)n1 (stereo not drawn) + COC1C(OC(N)=O)C(O)C(Oc2ccc3c(O)c(NC(=O)c4ccc(O)c(CC=C(C)C)c4)c(=O)oc3c2C)OC1(C)C
Second compound 0.0316 µM
  IC50: < 0.0316 µM
Second compound 0.1 µM
  IC50: < 0.0316 µM
Second compound 0.316 µM
  IC50: < 0.0316 µM
Second compound 1 µM
  IC50: < 0.0316 µM
Second compound 3.16 µM
  IC50: < 0.0316 µM
Second compound 10 µM
  IC50: < 0.0316 µM
[1]
  viability, T/C: 14.1%
[2]
  viability, T/C: 7.21%
[3]
  viability, T/C: 8.07%
[4]
  viability, T/C: 10.4%
[25]
  viability, T/C: 7.9%
[26]
  viability, T/C: 5.28%
[5]
  viability, T/C: 13.9%
[6]
  viability, T/C: 7.13%
[7]
  viability, T/C: 9.39%
[8]
  viability, T/C: 8.07%
[27]
  viability, T/C: 8.46%
[28]
  viability, T/C: 7.04%
[9]
  viability, T/C: 14.2%
[10]
  viability, T/C: 9.44%
[11]
  viability, T/C: 8.7%
[12]
  viability, T/C: 9.16%
[29]
  viability, T/C: 11.3%
[30]
  viability, T/C: 9.38%
[13]
  viability, T/C: 19.4%
[14]
  viability, T/C: 7.26%
[15]
  viability, T/C: 9.54%
[16]
  viability, T/C: 8.14%
[31]
  viability, T/C: 9.07%
[32]
  viability, T/C: 7.06%
[17]
  viability, T/C: 16.1%
[18]
  viability, T/C: 7.44%
[19]
  viability, T/C: 8.41%
[20]
  viability, T/C: 9.67%
[33]
  viability, T/C: 7.02%
[34]
  viability, T/C: 6.42%
[21]
  viability, T/C: 17.5%
[22]
  viability, T/C: 5.7%
[23]
  viability, T/C: 9.27%
[24]
  viability, T/C: 8.67%
[35]
  viability, T/C: 8.15%
[36]
  viability, T/C: 8.46%

## O=C(c1cc(Cc2n[nH]c(=O)c3ccccc23)ccc1F)N1CCN(C(=O)C2CC2)CC1 + COC1C(OC(N)=O)C(O)C(Oc2ccc3c(O)c(NC(=O)c4ccc(O)c(CC=C(C)C)c4)c(=O)oc3c2C)OC1(C)C
Second compound 0.0316 µM
  IC50: 6.65 µM
Second compound 0.1 µM
  IC50: 9.68 µM
Second compound 0.316 µM
  IC50: 8.28 µM
Second compound 1 µM
  IC50: 7.63 µM
Second compound 3.16 µM
  IC50: 9.21 µM
Second compound 10 µM
  IC50: 9.44 µM
[1]
  viability, T/C: 87.3%
[2]
  viability, T/C: 80.7%
[3]
  viability, T/C: 88.5%
[4]
  viability, T/C: 82.4%
[25]
  viability, T/C: 71.2%
[26]
  viability, T/C: 38.2%
[5]
  viability, T/C: 92.5%
[6]
  viability, T/C: 76.6%
[7]
  viability, T/C: 86.9%
[8]
  viability, T/C: 81.4%
[27]
  viability, T/C: 88.1%
[28]
  viability, T/C: 48.9%
[9]
  viability, T/C: 82.4%
[10]
  viability, T/C: 91.8%
[11]
  viability, T/C: 88.1%
[12]
  viability, T/C: 85.8%
[29]
  viability, T/C: 74.8%
[30]
  viability, T/C: 44.7%
[13]
  viability, T/C: 85.1%
[14]
  viability, T/C: 80%
[15]
  viability, T/C: 78.3%
[16]
  viability, T/C: 84.4%
[31]
  viability, T/C: 72.2%
[32]
  viability, T/C: 42.8%
[17]
  viability, T/C: 80.2%
[18]
  viability, T/C: 82.8%
[19]
  viability, T/C: 76.5%
[20]
  viability, T/C: 73.2%
[33]
  viability, T/C: 73.3%
[34]
  viability, T/C: 48%
[21]
  viability, T/C: 70.5%
[22]
  viability, T/C: 78.8%
[23]
  viability, T/C: 74.1%
[24]
  viability, T/C: 72.7%
[35]
  viability, T/C: 73.5%
[36]
  viability, T/C: 48.8%
